Where two headings read alike, the source gives them in different places.
Columns and labels:
Type in all cases: binding
[1] = biological target: T1, HeLa cell extract proteins (Homo sapiens, UniProt O75153)
T1 construct: endogenous in cells; host or cells: HeLa cell extract
T1 sequence (O75153 1-1309): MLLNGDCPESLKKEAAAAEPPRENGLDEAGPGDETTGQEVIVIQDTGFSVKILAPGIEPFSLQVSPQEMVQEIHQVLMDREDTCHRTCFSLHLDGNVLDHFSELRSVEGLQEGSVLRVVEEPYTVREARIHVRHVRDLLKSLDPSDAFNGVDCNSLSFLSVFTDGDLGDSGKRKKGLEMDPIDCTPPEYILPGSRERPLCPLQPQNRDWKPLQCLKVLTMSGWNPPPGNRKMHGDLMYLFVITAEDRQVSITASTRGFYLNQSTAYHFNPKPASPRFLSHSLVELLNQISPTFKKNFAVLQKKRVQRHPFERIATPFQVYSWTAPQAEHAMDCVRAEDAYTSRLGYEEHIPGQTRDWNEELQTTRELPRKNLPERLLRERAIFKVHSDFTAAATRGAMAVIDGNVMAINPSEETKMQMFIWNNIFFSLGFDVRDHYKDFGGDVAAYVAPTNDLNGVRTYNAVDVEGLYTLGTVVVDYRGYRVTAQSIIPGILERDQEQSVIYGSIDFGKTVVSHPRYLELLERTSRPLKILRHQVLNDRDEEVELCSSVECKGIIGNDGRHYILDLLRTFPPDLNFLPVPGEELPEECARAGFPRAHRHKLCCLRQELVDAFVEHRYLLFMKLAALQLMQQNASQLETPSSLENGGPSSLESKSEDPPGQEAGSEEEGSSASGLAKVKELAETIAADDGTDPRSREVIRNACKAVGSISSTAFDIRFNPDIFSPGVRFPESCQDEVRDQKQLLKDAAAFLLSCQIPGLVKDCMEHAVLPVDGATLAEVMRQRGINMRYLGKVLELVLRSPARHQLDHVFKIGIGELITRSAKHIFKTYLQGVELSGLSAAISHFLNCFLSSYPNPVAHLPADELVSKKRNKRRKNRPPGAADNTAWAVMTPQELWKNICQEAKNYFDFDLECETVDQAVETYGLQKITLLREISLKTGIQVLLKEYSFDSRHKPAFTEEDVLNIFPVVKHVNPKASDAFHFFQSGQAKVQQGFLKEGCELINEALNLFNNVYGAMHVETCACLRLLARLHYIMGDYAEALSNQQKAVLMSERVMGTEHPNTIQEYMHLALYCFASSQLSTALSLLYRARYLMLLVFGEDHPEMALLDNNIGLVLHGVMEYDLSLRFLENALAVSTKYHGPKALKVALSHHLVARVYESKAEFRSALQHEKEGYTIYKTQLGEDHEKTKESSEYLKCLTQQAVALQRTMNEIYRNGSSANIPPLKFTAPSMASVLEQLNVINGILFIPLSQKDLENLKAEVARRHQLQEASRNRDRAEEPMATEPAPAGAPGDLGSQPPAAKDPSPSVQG

[2] = biological target: T2, HeLa cell extract proteins (Homo sapiens, UniProt O95456)
T2 construct: endogenous in cells; host or cells: HeLa cell extract
T2 sequence (O95456 1-288): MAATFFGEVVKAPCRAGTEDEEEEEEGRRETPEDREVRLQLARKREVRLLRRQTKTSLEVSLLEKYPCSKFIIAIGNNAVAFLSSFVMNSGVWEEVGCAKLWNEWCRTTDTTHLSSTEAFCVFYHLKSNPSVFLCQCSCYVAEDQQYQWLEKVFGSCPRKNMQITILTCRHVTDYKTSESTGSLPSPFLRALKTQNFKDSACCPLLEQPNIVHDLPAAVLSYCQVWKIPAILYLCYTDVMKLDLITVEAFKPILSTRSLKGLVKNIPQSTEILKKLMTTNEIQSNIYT

[3] = biological target: T3, HeLa cell extract proteins (Homo sapiens, UniProt P32929)
T3 construct: endogenous in cells; host or cells: HeLa cell extract
T3 sequence (P32929 whole entry): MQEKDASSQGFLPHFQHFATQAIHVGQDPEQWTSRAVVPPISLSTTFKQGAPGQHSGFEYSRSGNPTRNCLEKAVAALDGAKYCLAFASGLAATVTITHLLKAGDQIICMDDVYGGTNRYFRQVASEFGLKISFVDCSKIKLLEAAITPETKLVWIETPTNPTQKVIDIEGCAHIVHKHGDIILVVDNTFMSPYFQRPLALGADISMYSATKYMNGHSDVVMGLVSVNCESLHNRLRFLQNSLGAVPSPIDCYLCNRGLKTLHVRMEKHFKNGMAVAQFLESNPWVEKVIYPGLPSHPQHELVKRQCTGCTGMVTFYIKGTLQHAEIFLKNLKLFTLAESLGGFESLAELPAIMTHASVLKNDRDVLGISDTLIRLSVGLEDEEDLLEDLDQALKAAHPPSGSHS

[4] = biological target: T4, HeLa cell extract proteins (Homo sapiens, UniProt Q5T8D3)
T4 construct: endogenous in cells; host or cells: HeLa cell extract
T4 sequence (Q5T8D3 1-534): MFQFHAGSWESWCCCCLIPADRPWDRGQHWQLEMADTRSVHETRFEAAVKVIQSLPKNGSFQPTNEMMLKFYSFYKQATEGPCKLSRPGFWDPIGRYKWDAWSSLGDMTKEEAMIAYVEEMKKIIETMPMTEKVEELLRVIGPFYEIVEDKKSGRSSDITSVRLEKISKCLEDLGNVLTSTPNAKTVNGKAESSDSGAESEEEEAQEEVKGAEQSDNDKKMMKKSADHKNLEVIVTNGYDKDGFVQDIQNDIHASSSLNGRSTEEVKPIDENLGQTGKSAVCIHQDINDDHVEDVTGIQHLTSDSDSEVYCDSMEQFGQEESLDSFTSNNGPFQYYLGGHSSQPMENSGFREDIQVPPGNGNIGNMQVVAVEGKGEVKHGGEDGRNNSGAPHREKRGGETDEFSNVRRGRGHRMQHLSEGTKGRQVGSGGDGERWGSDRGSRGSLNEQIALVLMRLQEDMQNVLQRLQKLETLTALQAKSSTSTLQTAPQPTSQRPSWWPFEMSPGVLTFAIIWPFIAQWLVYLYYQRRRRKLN

[5] = biological target: T5, HeLa cell extract proteins (Homo sapiens, UniProt Q9BQB6)
T5 construct: endogenous in cells; host or cells: HeLa cell extract
T5 sequence (Q9BQB6 whole entry): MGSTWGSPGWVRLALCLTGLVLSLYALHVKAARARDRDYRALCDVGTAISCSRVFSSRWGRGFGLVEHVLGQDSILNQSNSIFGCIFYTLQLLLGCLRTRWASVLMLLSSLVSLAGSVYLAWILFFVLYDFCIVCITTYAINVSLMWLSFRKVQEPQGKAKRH

SMILES: Nc1nc2cccc(-c3ccccc3)c2n1Cc1ccc(Cl)c(Cl)c1 [compound 3]
- fold changes relative to vehicle control ([1]; HeLa, protein KIAA0664): 1.11
- fold changes relative to vehicle control ([2]; HeLa, protein PSMG1): 1.03
- fold changes relative to vehicle control ([3]; protein CTH, HeLa): 0.91
- fold changes relative to vehicle control ([4]; HeLa, protein ACBD5): 0.92
- fold changes relative to vehicle control ([5]; HeLa, protein VKORC1): 1.03

SMILES: Nc1nc2[nH]cc(CCc3ccc(C(=O)N[C@@H](CCC(=O)O)C(=O)O)cc3)c2c(=O)[nH]1 [PTX, pemetrexed]
- fold changes relative to vehicle control [1]: 1.07
- fold changes relative to vehicle control [2]: 0.81
- fold changes relative to vehicle control [3]: 0.85
- fold changes relative to vehicle control [4]: 0.88
- fold changes relative to vehicle control [5]: 1.01

SMILES: Nc1nc2c(c(=O)[nH]1)N(C=O)C(CNc1ccc(C(=O)N[C@@H](CCC(=O)O)C(=O)O)cc1)CN2 (some centres unmarked) [LEU, leucovorin]
- fold changes relative to vehicle control ([1]; protein KIAA0664, HeLa): 1.17
- fold changes relative to vehicle control ([2]; HeLa, captured protein PSMG1): 0.9
- fold changes relative to vehicle control ([3]; protein CTH, HeLa): 0.82
- fold changes relative to vehicle control ([4]; HeLa, captured protein ACBD5): 1.01
- fold changes relative to vehicle control ([5]; HeLa, protein VKORC1): 1.02

SMILES: CCCCCCOc1cccc(Cc2cnc(N)nc2N)c1 [compound 2]
- fold changes relative to vehicle control ([1]; HeLa, protein KIAA0664): 1.25
- fold changes relative to vehicle control ([2]; HeLa, protein PSMG1): 0.91
- fold changes relative to vehicle control ([3]; protein CTH, HeLa): 1.43
- fold changes relative to vehicle control ([4]; HeLa, protein ACBD5): 1.13
- fold changes relative to vehicle control ([5]; HeLa, protein VKORC1): 1.05

SMILES: NCCOCCOCC(=O)Nc1nc2ncc(CNc3ccc(C(=O)NC(CCC(=O)O)C(=O)O)cc3)nc2c(=O)[nH]1 (centres unmarked) [compound 6]
- fold changes relative to vehicle control ([1]; protein KIAA0664, HeLa): 1.01
- fold changes relative to vehicle control ([2]; HeLa, captured protein PSMG1): 0.76
- fold changes relative to vehicle control ([3]; protein CTH, HeLa): 0.95
- fold changes relative to vehicle control ([4]; HeLa, captured protein ACBD5): 1.09
- fold changes relative to vehicle control ([5]; HeLa, protein VKORC1): 1.04

SMILES: CCCCCCOc1ccc(Cc2cnc(N)nc2N)cc1 [compound 1]
- fold changes relative to vehicle control ([1]; HeLa, protein KIAA0664): 1.17
- fold changes relative to vehicle control ([2]; HeLa, protein PSMG1): 0.9
- fold changes relative to vehicle control ([3]; protein CTH, HeLa): 0.86
- fold changes relative to vehicle control ([4]; HeLa, protein ACBD5): 1.13
- fold changes relative to vehicle control ([5]; HeLa, protein VKORC1): 0.98

SMILES: NCCCNc1ccc(C(=O)NC(CCC(=O)O)C(=O)O)cc1 (centres unmarked) [compound 7]
- fold changes relative to vehicle control ([1]; protein KIAA0664, HeLa): 1.12
- fold changes relative to vehicle control ([2]; HeLa, captured protein PSMG1): 0.98
- fold changes relative to vehicle control ([3]; protein CTH, HeLa): 0.87
- fold changes relative to vehicle control ([4]; HeLa, captured protein ACBD5): 1.03
- fold changes relative to vehicle control ([5]; HeLa, protein VKORC1): 1.11
